Inconclusive results and toxic doses are left out. How the source made its calls: active means survival T/C of 150% or more; inactive means T/C below 125% in these data. Non-standard residues stand in square brackets, D forms with d. Residues, ends and D or L forms follow the SMILES beside them. ξ: configuration not given here. *: point of attachment. Bz = O=C(c1ccccc1)*; Bn = c1ccc(C*)cc1; ξC = NC(CS)C(=O)O
System: CD2F1 mice, L1210 leukemia ip, survival T/C
Assay: NCI In Vivo Anticancer Drug Screen. Data for tumor model L1210 Leukemia (intraperitoneal) in CD2F1 (CDF1) mice
Settings: higher = longer survival
Outline: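 Ratio T/C, where T is the treated-group value and C the vehicle-dosed control value, from mice implanted with a transplantable tumor.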

[1] = endpoint: mean survival time, dose: 100.0 mg/kg/injection, schedule: Q04DX002 (ip), vehicle: saline with Tween-80
[2] = endpoint: mean survival time, dose: 200.0 mg/kg/injection, schedule: Q04DX002 (ip), vehicle: saline with Tween-80
[3] = endpoint: mean survival time, dose: 400.0 mg/kg/injection, schedule: Q04DX002 (ip), vehicle: saline with Tween-80
[4] = endpoint: mean survival time, dose: 100.0 mg/kg/injection, schedule: Q04DX003 (ip), vehicle: saline with Tween-80
[5] = endpoint: mean survival time, dose: 200.0 mg/kg/injection, schedule: Q04DX003 (ip), vehicle: saline with Tween-80
[6] = endpoint: mean survival time, dose: 100.0 mg/kg/injection, schedule: Q01DX009 (ip), vehicle: saline with Tween-80
[7] = endpoint: mean survival time, dose: 200.0 mg/kg/injection, schedule: Q01DX009 (ip), vehicle: saline with Tween-80
[8] = endpoint: mean survival time, dose: 400.0 mg/kg/injection, schedule: Q01DX009 (ip), vehicle: saline with Tween-80
[9] = endpoint: mean survival time, dose: 400.0 mg/kg/injection, schedule: Q04DX003 (ip), vehicle: saline with Tween-80
[10] = endpoint: mean survival time, dose: 50.0 mg/kg/injection, schedule: Q01DX009 (ip), vehicle: saline with Tween-80

Measured: T/C

O=C(O)/C=N/NS(=O)(=O)c1ccccc1
inactive: endpoint: mean survival time, dose: 12.5 mg/kg/injection, schedule: Q01DX009 (ip), vehicle: water 99 % of control | endpoint: mean survival time, dose: 25.0 mg/kg/injection, schedule: Q01DX009 (ip), vehicle: water 103 % of control | endpoint: mean survival time, dose: 50.0 mg/kg/injection, schedule: Q01DX009 (ip), vehicle: water 113 % of control | endpoint: mean survival time, dose: 100.0 mg/kg/injection, schedule: Q01DX009 (ip), vehicle: water 114 % of control

COC(=O)c1cccc(I)c1
inactive: [1] 100 % of control | [2] 100 % of control | [3] 96 % of control

CCOC(=O)C(CCP(=O)(OCC)OCC)NC(=O)c1ccc(N(C)Cc2cnc3nc(N)nc(N)c3n2)cc1 (centres undefined)
inactive: endpoint: median survival time, dose: 0.38 mg/kg/injection, schedule: Q01DX009 (ip), vehicle: saline 101 % of control | endpoint: median survival time, dose: 0.75 mg/kg/injection, schedule: Q01DX009 (ip), vehicle: saline 102 % of control | endpoint: median survival time, dose: 1.5 mg/kg/injection, schedule: Q01DX009 (ip), vehicle: saline 102 % of control | endpoint: median survival time, dose: 3.0 mg/kg/injection, schedule: Q01DX009 (ip), vehicle: saline 102 % of control | endpoint: median survival time, dose: 6.0 mg/kg/injection, schedule: Q01DX009 (ip), vehicle: saline 101 % of control | endpoint: median survival time, dose: 12.0 mg/kg/injection, schedule: Q01DX009 (ip), vehicle: saline 102 % of control

CCOc1ccc2nc([NH-])sc2c1.CCOc1ccc2nc([NH-])sc2c1.[Cl][Pt+2][Cl]
inactive: endpoint: mean survival time, dose: 3.13 mg/kg/injection, schedule: Q04DX003 (ip), vehicle: distilled water + Tween-80 96 % of control | endpoint: mean survival time, dose: 6.25 mg/kg/injection, schedule: Q04DX003 (ip), vehicle: distilled water + Tween-80 96 % of control | endpoint: mean survival time, dose: 12.5 mg/kg/injection, schedule: Q04DX003 (ip), vehicle: distilled water + Tween-80 96 % of control | endpoint: mean survival time, dose: 25.0 mg/kg/injection, schedule: Q04DX003 (ip), vehicle: distilled water + Tween-80 95 % of control | endpoint: mean survival time, dose: 50.0 mg/kg/injection, schedule: Q04DX003 (ip), vehicle: distilled water + Tween-80 98 % of control | endpoint: mean survival time, dose: 100.0 mg/kg/injection, schedule: Q04DX003 (ip), vehicle: distilled water + Tween-80 101 % of control | endpoint: mean survival time, dose: 200.0 mg/kg/injection, schedule: Q04DX003 (ip), vehicle: distilled water + Tween-80 96 % of control

CCCCNC(=O)C1C=C2c3cccc4c3C(CN4)CC2N(C)C1 (centres undefined)
inactive: endpoint: mean survival time, dose: 50.0 mg/kg/injection, schedule: Q04DX003 (ip), vehicle: saline with Tween-80 88 % of control | [4] 91 % of control | [5] 96 % of control

COc1cc2c3cc1Oc1c(OC)c(OC)cc4c1C(Cc1ccc(O)c(c1)Oc1ccc(cc1)CC3N(C)CC2)CN(C)C4 (centres undefined)
inactive: [4] 101 % of control | [5] 93 % of control

CCCCCCCCCCNC(=O)C[n+]1cccc(C(=O)NCc2ccccc2)c1
inactive: endpoint: mean survival time, dose: 12.5 mg/kg/injection, schedule: Q01DX009 (ip), vehicle: saline sonified 90 % of control | endpoint: mean survival time, dose: 12.5 mg/kg/injection, schedule: Q04DX003 (ip), vehicle: saline sonified 104 % of control | endpoint: mean survival time, dose: 25.0 mg/kg/injection, schedule: Q04DX003 (ip), vehicle: saline sonified 104 % of control | endpoint: mean survival time, dose: 50.0 mg/kg/injection, schedule: Q04DX003 (ip), vehicle: saline sonified 101 % of control

c1ccc(C(=NCCN=C(c2ccccc2)c2ccccc2)c2ccccc2)cc1
inactive: [6] 97 % of control | [4] 97 % of control | [7] 92 % of control | [5] 97 % of control | [8] 95 % of control | [9] 97 % of control

Cn1c2cc(Cl)c(Cl)cc2nc2cc3c(cc21)c(Cl)c(=O)c1cc2cc(Cl)c(Cl)cc2cc13
inactive: endpoint: mean survival time, dose: 100.0 mg/kg/injection, schedule: Q04DX003 (ip), vehicle: saline 95 % of control | endpoint: mean survival time, dose: 200.0 mg/kg/injection, schedule: Q04DX003 (ip), vehicle: saline 95 % of control | endpoint: mean survival time, dose: 400.0 mg/kg/injection, schedule: Q04DX003 (ip), vehicle: saline 100 % of control

COC(=O)C(CSCc1ccccc1)NC(=O)CNC(=O)c1ccccc1 (centres undefined) (Bz-Gly-[ξC](Bn)-OMe)
inactive: endpoint: mean survival time, dose: 100.0 mg/kg/injection, schedule: Q01DX001 (ip), vehicle: saline with Tween-80 98 % of control | [6] 91 % of control | endpoint: mean survival time, dose: 200.0 mg/kg/injection, schedule: Q01DX001 (ip), vehicle: saline with Tween-80 93 % of control | [7] 94 % of control | endpoint: mean survival time, dose: 400.0 mg/kg/injection, schedule: Q01DX001 (ip), vehicle: saline with Tween-80 97 % of control | [8] 91 % of control

Cc1cccc(C)c1NC(=S)N1CCC(CCCC2CCN(C(=S)Nc3c(C)cccc3C)CC2)CC1
inactive: [4] 105 % of control | [5] 96 % of control | [9] 96 % of control

O=C(N/N=C/c1cccc([N+](=O)[O-])c1)c1ccccc1
inactive: [6] 107 % of control | [7] 102 % of control | [8] 94 % of control

COc1cc2c(cc1O)CCCC=C2
inactive: [10] 100 % of control | [6] 96 % of control | [7] 92 % of control

CCN(CC)Cc1cn(C2CC(O)C(CO)O2)c(=O)[nH]c1=O (centres undefined)
inactive: endpoint: mean survival time, dose: 12.5 mg/kg/injection, schedule: Q01DX005 (ip), vehicle: water 100 % of control | endpoint: mean survival time, dose: 25.0 mg/kg/injection, schedule: Q01DX005 (ip), vehicle: water 104 % of control | endpoint: mean survival time, dose: 50.0 mg/kg/injection, schedule: Q01DX005 (ip), vehicle: water 91 % of control | endpoint: mean survival time, dose: 100.0 mg/kg/injection, schedule: Q01DX005 (ip), vehicle: water 100 % of control | endpoint: mean survival time, dose: 200.0 mg/kg/injection, schedule: Q01DX005 (ip), vehicle: water 98 % of control

O=C1C2(CCCCC2)C(=O)C12CCCCC2
inactive: [10] 96 % of control | [6] 110 % of control | [7] 93 % of control

O=C1C=CC(=O)c2c(O)ccc(O)c21
inactive: endpoint: mean survival time, dose: 1.0 mg/kg/injection, schedule: Q04DX003 (ip), vehicle: saline with Tween-80 91 % of control | endpoint: mean survival time, dose: 2.0 mg/kg/injection, schedule: Q04DX003 (ip), vehicle: saline with Tween-80 104 % of control | endpoint: mean survival time, dose: 4.0 mg/kg/injection, schedule: Q04DX003 (ip), vehicle: saline with Tween-80 104 % of control

O=C(CCCN1CCC(O)(c2ccc(Cl)cc2)CC1)c1ccc(N2CCC(O)CC2)cc1
inactive: [1] 104 % of control | [2] 93 % of control | [3] 93 % of control

Cc1cc(C)cc(OC(=O)/C=C/C(=O)Oc2cc(C)cc(C)c2)c1
inactive: [4] 100 % of control | [5] 95 % of control | [9] 96 % of control

CCCCCCCCCC(C(=O)OCC)(C(=O)OCC)C1CCCC1
inactive: endpoint: mean survival time, dose: 100.0 mg/kg/injection, schedule: Q01DX001 (ip), vehicle: saline sonified 106 % of control | [4] 100 % of control | endpoint: mean survival time, dose: 200.0 mg/kg/injection, schedule: Q01DX001 (ip), vehicle: saline sonified 100 % of control | [5] 100 % of control | endpoint: mean survival time, dose: 400.0 mg/kg/injection, schedule: Q01DX001 (ip), vehicle: saline sonified 90 % of control | [9] 97 % of control

Cc1cccc(C)c1Nc1n[nH]c(=S)s1
inactive: endpoint: mean survival time, dose: 100.0 mg/kg/injection, schedule: Q01DX001 (ip), vehicle: Klucel (hydroxypropylcellulose) (HPC) 97 % of control | endpoint: mean survival time, dose: 200.0 mg/kg/injection, schedule: Q01DX001 (ip), vehicle: Klucel (hydroxypropylcellulose) (HPC) 101 % of control | endpoint: mean survival time, dose: 400.0 mg/kg/injection, schedule: Q01DX001 (ip), vehicle: Klucel (hydroxypropylcellulose) (HPC) 101 % of control

From PubChem BioAssay AID256 (DTP/NCI, 2004)
